In brackets after ≈: the same amount, converted by molar mass.
Legend:
HCC38 [1] = test: Superoxide anion generation, DHE probe; format: cell-based, human; conditions: IC50 concentration, 24 h
Description: (§1) The level of superoxide anion (O2^•−) was determined by microplate spectrofluorimetry with dihydroethidium (hydroethidine, DHE) (Life Technologies, Carlsbad, CA, USA), which is the most commonly used fluorogenic probe for monitoring the intracellular production of superoxide anion O2^•− [41]. […] Thanks to this shift, DHE can be used as a sensitive probe for cellular ROS. The reaction between superoxide and DHE generates a highly specific red fluorescent product, 2-hydroxyethidium (2-OH-E^+).
(§2) The cells were seeded in black 96-well fluorometric microplates at a density of 10 × 10^3 cells per well. […] After incubation, the medium was removed, the cell monolayer in the wells was washed twice with HBSS (140 mM NaCl, 5 mM KCl, 0.8 mM MgCl2, 1.8 mM CaCl2, 1 mM Na2HPO4, 10 mM HEPES and 1% glucose) and 50 μL of DHE solution in HBSS was added to each well (final probe concentration 5 μmol/L). Cells were incubated with the probe for 30 min in the dark in an incubator (37 °C), and then fluorescence was measured. The measurement was performed at the following excitation and fluorescence emission wavelengths: λex = 498 nm/λem = 582 nm. Fluorescence measurements were made on a Perkin-Elmer LS-5B spectrofluorometer (MA, USA). Fluorescence intensity values for control cells were arbitrarily set as 100%. The results are presented as percentages of control cell values, calculated relative to the fluorescence intensity of the controls (100%): sample fluorescence was calculated as Δf in relation to the controls.

[2] = test system: intrinsic coagulation pathway; test: Activated partial thromboplastin time (APTT); format: biochemical, human; conditions: 1–100 µmol/L; values did not exceed the reference range
Description: (§3) Basic coagulation parameters were determined using Bio-Ksel reagents (Grudziądz, Poland): APTT reagent, calcium chloride, Bio-Ksel PT plus reagent (tromboplastin and solvent) and thrombin (3.0 UNIH/mL) for TT experiments. The methods were calibrated and the coefficient of variation (PT, APTT, TT experiments) was calculated using a calibrator (Bio-Ksel, Grudziadz, Poland), normal plasma (Bio-Ksel, Grudziądz, Poland) and water for injection (Polpharma, Gdańsk, Poland).
(§4) The experiments were conducted in multiplicates, and their results are presented as mean ± standard deviation (SD). Control samples consisting of distilled water and methanol were tested. All methods were validated using Bio-Ksel normal plasma, which was dissolved in water for injection (Polpharma, Gdańsk, Poland). The reference values for each test are as follows: PT: 9.7–13.8 s; INR: 0.9–1.2; APTT: 28.2–42.3 s; TT: 11.0–16.5 s for 3.0 UNIH/mL of thrombin.

[3] = Water solubility by UV–Vis spectrophotometry (phase solubility with cyclodextrins); format: physicochemical; conditions: 25 °C, thermodynamic from solid, 298.15 K, without cyclodextrin, read-out: Solubility in H2O
Description: Spectrophotometric measurements were performed using a SPECORD 50 single-beam UV–Vis spectrophotometer (Analyst Jena, Thuringia, Germany). The calibration lines of the compounds tested were determined for the concentration range of 3.0 × 10^−6 M to 1 × 10^−4 M (Figure 21). The molar extinction coefficients for 3, 3a, and 5 were determined experimentally in an aqueous ethanol solution; the relevant maximum wavelengths are presented in Table 9. The influence of α-cyclodextrins, β-cyclodextrins and HP-β-cyclodextrins on the solubility of the tested ligands in water was evaluated in three measurement series. Briefly, excess ligand was introduced into closed Eppendorff tubes containing α-CD, β-CD or HP-β-CD solutions, at concentrations ranging from 1 to 90 mM for α-CD and HP-β-CD and from 1 to 15 mM for β-CD. The test tubes were stored for 10 days at a temperature of 298.15 K until equilibrium was achieved. After this time, the solutions were centrifuged using a Microcentrifuge MPW-55 at 13,000 rpm for five minutes. For testing, a clear solution was taken from above the sediment and diluted appropriately so that the spectrum was within the operating range of the spectrophotometer.

MCF-7 = test: Superoxide anion generation, DHE probe; format: cell-based, human; conditions: IC50 concentration, 24 h
Description: as §1, §2

Ishikawa = test: Superoxide anion generation, DHE probe; format: cell-based, human; conditions: IC50 concentration, 24 h
Description: as §1, §2

Hec-1-A = test: Superoxide anion generation, DHE probe; format: cell-based, human; conditions: IC50 concentration, 24 h
Description: as §1, §2

[4] = test system: extrinsic coagulation pathway; test: Prothrombin time (PT); format: biochemical, human; conditions: 1–100 µmol/L
Description: as §3
as §4, with “Control” for “The experiments were conducted in multiplicates, and their results are presented as mean ± standard deviation (SD). Control”

HCC38 [5] = test: Mitochondrial potential (ΔΨm), JC-1 method; format: cell-based, human; conditions: IC50 concentration, 24 h
Text: 5,5,6,6-Tetrachloro-1,1,3,3-tetraethylbenzimidazolylcarbocyanine iodide (JC-1) is a cationic carbocyanine dye commonly used as a fluorescent probe to detect mitochondrial membrane depolarization. In living cells with an intact mitochondrial membrane, the lipophilic JC-1 penetrates the negatively charged mitochondrial matrix as a monomer. It then forms fluorescent aggregates with red-orange fluorescence (λex = 514 nm, λem = 590 nm). During depolarization of the mitochondrial membrane or in apoptotic cells, the concentration of JC-1 decreases, and the aggregates disintegrate into monomers emitting green fluorescence (λex = 514 nm, λem = 529 nm). The fluorescence ratio of aggregates (λem = 590 nm) and monomers (λem = 529 nm)—590 nm/529 nm—reflects the level of damage to the mitochondrial membrane.
The cells were seeded in black 96-well fluorometric microplates at a density of 10 × 10^3 cells per well. […] After incubation with the compounds, the medium was removed, the cell monolayer in the wells was washed twice with HBSS (140 mM NaCl, 5 mM KCl, 0.8 mM MgCl2, 1.8 mM CaCl2, 1 mM Na2HPO4, 10 mM HEPES and 1% glucose) and 50 μL of JC-1 solution in HBSS was added to each well (final probe concentration 5 μmol/L). Cells were incubated with the probe for 30 min in the dark in an incubator (37 °C). After incubation, the probe was removed and replaced with fresh HBSS buffer. Fluorescence measurements (Perkin-Elmer LS-5B spectrofluorometer, MA, USA) of JC-1 monomers and aggregates were made at the following excitation and emission wavelengths: λex = 514 nm, λem = 529 nm (monomers), λex = 514 nm, λem = 590 nm (aggregates). The results of the tested samples are presented as the percentage fluorescence ratio of JC-1 aggregates and JC-1 monomers relative to the fluorescence ratio of JC-1 aggregates and JC-1 monomers of the control, which was assumed to be 100%.
A positive control was formed of cells pre-incubated with 5 µmol/L carbonyl cyanide m-chlorophenylhydrazone (CCCP), a chemical inhibitor of oxidative phosphorylation that acts by uncoupling the protons flowing along the electrochemical gradient from phosphorylation.

| SMILES | increase in superoxide anion / ROS relative to control (DHE probe) (HCC38 [1]) | APTT time (in words) [2] | solubility at 10 days [3] | greater superoxide anion level relative to control (DHE probe) (MCF-7) | greater superoxide anion level relative to control (DHE probe) (Ishikawa) | rise of superoxide anion level compared to the control (DHE probe) (Hec-1-A) | prothrombin time (PT), difference compared to controls (in words) [4] | change in mitochondrial potential (in words) (HCC38 [5]) |
| --- | --- | --- | --- | --- | --- | --- | --- | --- |
| O=C1/C(=C/c2ccccc2)COc2ccccc21 [Compound 1] | approximately 20% |  |  |  |  |  |  |  |
| COc1cccc(/C=C2/C(=O)c3ccccc3OC2c2ccccc2)c1 (stereo not shown) [Compound 3] |  | mild, statistically significant prolongation of APTT time | 1.29 µM (≈ 0.442 µg/mL) | approximately 20% | approximately 20% | approximately 20% | No statistically significant differences |  |
| O=C1/C(=C/c2ccccc2)C(c2ccccc2)Oc2ccccc21 (stereo not shown) [Compound 5] |  | mild, statistically significant prolongation of APTT time | 1.5 µM (≈ 0.469 µg/mL) | ~30% | ~30% |  | No statistically significant differences | strong hyperpolarization |
